Experimental data as given in patent publication US7605168B2 (Plexxikon, Inc., priority 2004, dated 2009).

What was measured:
[1] = target: T1, PDE4B: catalytic domain of human PDE4B from S152-S528 (Homo sapiens, UniProt Q07343); experiment: PDE4 IC50 determination by Scintillation Proximity Assay (SPA), PDE4B catalytic domain; type: biochemical; conditions: [3H]cAMP SPA, 30 min at 30° C.
T1 construct: The catalytic domain of human PDE4B from S152-S528; His6 (N, cleaved yes); thrombin cleavage site (N, cleaved yes); made in house; host or cells: E. coli BL21 (DE3) RIL
Summary of the method: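 Human PDE4B catalytic domain (80 ng/ml) hydrolysed [3H]cAMP in 50 mM Tris pH 7.5, 8.3 mM MgCl, 1.7 mM EGTA, 0.01% BSA for 30 min at 30 °C. Reaction was stopped with yttrium silicate SPA beads in 18 mM ZnSO4, and bound [3H]AMP was counted by scintillation. IC50 came from non-linear regression.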

[2] = target: T2, PDE4B2: full-length human PDE4B2 isozyme (Homo sapiens, UniProt Q07343); experiment: PDE4 IC50 determination by Scintillation Proximity Assay (SPA), full-length PDE4B2; type: biochemical; conditions: cell lysate, [3H]cAMP SPA
T2 construct: made in house; host or cells: baculovirus infected insect cells (pFastBacHT)
Summary of the method: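 Unpurified enzyme from cell lysates (PDE4B2 2.5 μl, PDE4D5 0.083 μl of 50% glycerol stock/ml) hydrolysing [3H]cAMP in 50 mM Tris pH 7.5, 8.3 mM MgCl, 1.7 mM EGTA, 0.01% BSA, 30 min at 30 °C. Stopped with yttrium silicate SPA beads in 18 mM ZnSO4; bead-bound [3H]AMP counted. IC50 by non-linear regression.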

[3] = test system: TNF-α release from whole blood cultures stimulated with LPS; experiment: IC50 by TNF alpha production upon stimulation of whole blood cultures with LPS; type: cell-based; conditions: human whole blood (buffy coat) culture, 100 ng/ml LPS, 4 hours; read-out: h TNFα IC50
Summary of the method: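 Human buffy coat, diluted with 7 volumes of RPMI/2.5% heat-inactivated FBS, was preincubated with compound (8-point 1:3 series) for 1 h at 37 °C. It was then stimulated with 100 ng/ml LPS (final) for 4 h. Supernatant TNF-α was measured by sandwich ELISA at 450 nm, and IC50 was set between DMSO (0%) and PDE4-inhibitor (100%) controls.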

T2 sequence (Q07343 with tags, fused parts or gaps isoform Q07343-2): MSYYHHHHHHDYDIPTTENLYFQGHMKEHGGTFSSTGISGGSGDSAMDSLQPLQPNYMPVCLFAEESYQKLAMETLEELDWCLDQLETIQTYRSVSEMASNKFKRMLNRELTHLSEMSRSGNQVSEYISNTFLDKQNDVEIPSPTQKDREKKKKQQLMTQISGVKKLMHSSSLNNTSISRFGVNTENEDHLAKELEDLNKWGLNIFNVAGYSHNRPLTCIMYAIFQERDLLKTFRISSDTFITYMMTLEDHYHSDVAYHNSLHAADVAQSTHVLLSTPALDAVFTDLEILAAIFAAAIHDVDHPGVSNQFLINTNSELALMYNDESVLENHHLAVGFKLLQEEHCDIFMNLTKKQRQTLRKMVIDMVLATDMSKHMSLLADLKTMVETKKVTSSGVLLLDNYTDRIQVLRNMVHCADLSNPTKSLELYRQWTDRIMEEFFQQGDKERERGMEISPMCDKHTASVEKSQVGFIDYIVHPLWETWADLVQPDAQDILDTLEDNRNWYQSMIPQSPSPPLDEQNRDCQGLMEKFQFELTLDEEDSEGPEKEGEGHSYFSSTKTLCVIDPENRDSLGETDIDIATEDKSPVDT
T1 sequence (Q07343 324-700): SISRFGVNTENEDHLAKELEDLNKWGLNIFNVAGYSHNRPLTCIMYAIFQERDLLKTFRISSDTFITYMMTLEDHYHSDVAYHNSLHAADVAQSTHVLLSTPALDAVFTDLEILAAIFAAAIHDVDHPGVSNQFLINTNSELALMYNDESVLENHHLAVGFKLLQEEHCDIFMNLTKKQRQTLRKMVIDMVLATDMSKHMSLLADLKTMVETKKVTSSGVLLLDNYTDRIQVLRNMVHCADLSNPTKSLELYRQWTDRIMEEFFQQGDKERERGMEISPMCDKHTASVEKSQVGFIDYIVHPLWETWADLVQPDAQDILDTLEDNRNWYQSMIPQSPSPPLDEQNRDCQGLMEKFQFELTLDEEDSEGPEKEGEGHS

CCOc1ccccc1C(=O)n1cc(-c2ccc(OC)c(OC)c2)c2cccnc21 [Compound 61, [3-(3,4-Dimethoxy-phenyl)-pyrrolo[2,3-b]pyridin-1-yl]-(2-ethoxy-phenyl)-methanone-amide]
IC50 [1]: < 10 µM
IC50 [2]: < 10 µM
IC50 [3]: ≤ 10 µM

CCOc1ccc2ccccc2c1C(=O)n1cc(-c2ccc(OC)c(OC)c2)c2cccnc21 [Compound 52, [3-(3,4-Dimethoxy-phenyl)-pyrrolo[2,3-b]pyridin-1-yl]-(2-ethoxy-naphthalen-1-yl)-methanone]
IC50 [1]: < 10 µM
IC50 [2]: < 10 µM
IC50 [3]: ≤ 10 µM
